From US20260130885A1, “ANTIMICROBIAL COMPOSITIONS, PHARMACEUTICAL COMPOSITIONS AND USE THEREOF” (priority 2022, published 2026)
In brackets after ≈: the same amount, converted by molar mass. Where two headings read alike, the source gives them in different places.

How the values were obtained:
S. aureus DAP-NS = assay: Antibacterial activity assay (MIC, broth microdilution); type: cell-based, Staphylococcus aureus; conditions: for MIC: Staphylococcus aureus
MRSA USA300 = assay: Time-kill kinetics (cfu assay); type: cell-based, Staphylococcus aureus; conditions: SC5005 4×MIC, 1 mg/L; FIG. 1
Method: The number of viable bacteria in broth after each exposure period was enumerated by a cfu assay and expressed as cfu/mL; the data shown are the mean±SD (standard deviation) of independent experiments. […] The number of viable bacteria in the broth after each exposure period was calculated by a cfu assay (cfu/mL); the data are shown as the mean±SD of three independent experiments (n=3 for each group). Since the standard deviation of each point is very small, the error line is not shown in each graph. The horizontal dashed line in the upper left graph and the upper right graph represents […] of the bacterial cells killed. In addition, the blank controls in FIG. 1 are shown as filled diamonds.
In this experiment, the inventor analyzed the time-kill kinetics of SC5005, DHA, and a combination thereof against Staphylococcus aureus NCTC8325 and MRSA USA300, and the results are shown in FIG. 1. It can be seen in FIG. 1 that SC5005 killed more than 99.9% of the bacteria within 24 hours. […] Besides, it is well known in the art that Staphylococcus aureus can enter a dormant state (i.e., become the so-called persister cells) and develop resistance to antibiotic treatment, thus leading to repeated bacterial infections.

[1] = system: biofilms of S. aureus NCTC8325; assay: Biofilm eradication assay; type: cell-based, Staphylococcus aureus; conditions: 24 hours; FIG. 2
Method: (§1) FIG. 2: The biofilms of S. aureus NCTC8325 (the upper left graph) and MRSA USA300 (the upper right graph) were treated with increasing concentrations of blank control (Mock), DHA, daptomycin (DAP), vancomycin (VAN), SC5005, and SC5005 in combination with DHA for 24 hours. The number of viable bacteria was then determined using a cfu assay. The data represent individual experiments and are shown as the mean±SD (n=3 per group). ns, nonsignificant, p>0.05; *p<0.05; **p<0.01; ***p<0.001. (The lower left graph) the biofilms of MRSA USA300 were treated with blank control (Mock) or SC5005 along with 80 mg/L DHA for 1, 3 or 10 minute(s). The viable bacteria in the biofilms harvested and enumerated using a cfu assay. The data represent independent experiments and are shown as mean±SD (n=3 per group). ns, nonsignificant, p>0.05; *p<0.05; **p<0.01; ***p<0.001 (The lower right graph) RAW264.7 cells were exposed to a blank control (Mock) or increasing concentrations of SC5005 and 80 mg/L DHA for […]. The viability of cells was determined by the MTT assay and expressed as a percentage relative to mock (DMSO and ethanol)-treated cells. The data shown are the mean±SD (n=3 per group).
(§2) The eradication activity of daptomycin, vancomycin, experimental acyl compounds and experimental acyl compounds along with fatty acids against biofilms of microorganisms was evaluated as described above. Briefly, bacteria were grown in tryptic soy broth (Becton Dickinson, USA) and biofilms were formed on the pegs of the lid of a 96-well dish immersed in bacterial cultures at 5×10^5 cfu/mL. […] After incubation at 37° C. for 24 hours, the peg-lids were washed and placed onto a new 96-well plate with fresh CAMHB in each well and sonicated for 5 minutes to disrupt the biofilm on the pegs, followed by a cfu assay to assess the number of viable bacteria in each well. To determine the minimum biofilm removal concentration, the 96-well plates were covered with new lids and incubated at 37° C. for 24 hours, and then the viable bacteria in each well were counted using the cfu assay.

biofilms of MRSA USA300 = assay: Biofilm eradication assay; type: cell-based, Staphylococcus aureus
Method: as §1, §2

[2] = Antiproliferation assay (MTT); type: cell-based, murine; conditions: mouse, RAW264.7 macrophage cells, read-out: CC50 of SC5005
Method: as §1
The murine macrophage cell line RAW264.7 (BCRC) and human cervical epithelioid carcinoma cell line HeLa (BCRC) were maintained in Dulbecco's modified Eagle's medium (DMEM; Gibco-BRL) supplemented with 10% heat-inactivated FBS (Gibco-BRL). The human embryonic kidney cell line HEK-293 (BCRC) and the immortalized nontumorigenic keratinocyte cell line HaCaT (obtained from Dr. Yung-Chiy Chang, National Taiwan University, Taiwan) were maintained in Roswell Park Memorial Institute (RPMI; Gibco-BRL) medium supplemented with 10% heat-inactivated FBS. Cells were cultured in T-75 flasks at 37° C. in a 5% CO2 atmosphere.
The effects of SC5005 and DHA on the viability of mammalian cells were assessed using a 3-(4,5-dimethylthiazol-2-yl)-2,5-diphenyl-2H-tetrazolium bromide (MTT) assay in six replicates per treatment group. Briefly, cells were seeded into 96-well, flat-bottomed plates at 10^4 cells/well, cultured for 24 hours, and then exposed to SC5005 at concentrations ranging from 5-30 mg/L or the combination of SC5005 with designated concentrations of DHA for 24 hours. Controls were treated with DMSO and ethanol vehicles at concentrations equal to those for drug-treated cells. At the end of treatments, the medium was replaced with 0.5 g/L MTT-containing culture medium, and the cells were incubated in a CO2 incubator at 37° C. for an additional 1.5 hours. Supernatants were removed from the wells, and the reduced MTT dye was solubilized in DMSO followed by measuring the absorbance at 570 nm of each well using a VersaMax microplate reader (Molecular Devices, USA).

S. aureus NCTC8325 = assay: Antibacterial activity assay (MIC, broth microdilution); type: cell-based, Staphylococcus aureus; conditions: for MIC: Staphylococcus aureus
MRSA ATCC49476 = assay: as above; type: cell-based, Staphylococcus aureus; conditions: for MIC: Staphylococcus aureus
S. aureus ATCC29213 = assay: as above; type: cell-based, Staphylococcus aureus; conditions: for MIC: Staphylococcus aureus
MRSA ATCC33591 = assay: as above; type: cell-based, Staphylococcus aureus; conditions: for MIC: Staphylococcus aureus
MRSA ATCC43300 = assay: as above; type: cell-based, Staphylococcus aureus; conditions: for MIC: Staphylococcus aureus

O=C(Nc1ccc(Cl)c(C(F)(F)F)c1)C(CCCl)C(=O)Nc1ccc(Cl)c(C(F)(F)F)c1 [SC5005]
combination effect (S. aureus DAP-NS; MIC, +8 mg/L DHA): (Syn) (Synergy (Syn) was defined as an FICI≤0.5)
MIC (S. aureus DAP-NS; +8 mg/L DHA): 0.0019 ng/mL (≈ 0.00364 nM)
MIC (S. aureus DAP-NS; agent alone): 250 ng/mL (≈ 479 nM)
bacteria killed within 24 hours (MRSA USA300): more than 99.9%
biofilm removing activity (in words) [1]: superior biofilm removing activity in comparison with daptomycin and vancomycin
biofilm removing activity (in words) (biofilms of MRSA USA300; 24 hours, FIG. 2): superior biofilm removing activity in comparison with daptomycin and vancomycin
increase of the biofilm removing activity of SC5005 (biofilms of MRSA USA300; DHA concentration 80 mg/L, strain not given): 32 times
CC50 at 24 h ([2]; DHA 0 mg/L): 19500 ± 600 ng/mL
CC50 at 24 h ([2]; DHA 4 mg/L): 22600 ± 800 ng/mL
CC50 at 24 h ([2]; DHA 8 mg/L): 19700 ± 2500 ng/mL
CC50 at 24 h ([2]; DHA 16 mg/L): 21200 ± 2300 ng/mL
combination effect (S. aureus NCTC8325; MIC, +8 mg/L DHA): (Syn) (Synergy (Syn) was defined as an FICI≤0.5)
MIC (S. aureus NCTC8325; NCTC8325, +8 mg/L DHA): 0.0019 ng/mL (≈ 0.00364 nM)
MIC (S. aureus NCTC8325; NCTC8325, agent alone): 250 ng/mL (≈ 479 nM)
combination effect (MRSA ATCC49476; MIC, +8 mg/L DHA): (Syn) (Synergy (Syn) was defined as an FICI≤0.5)
MIC (MRSA ATCC49476; +8 mg/L DHA): 0.00095 ng/mL (≈ 0.00182 nM)
MIC (MRSA ATCC49476; agent alone): 250 ng/mL (≈ 479 nM)
combination effect (S. aureus ATCC29213; MIC, +8 mg/L DHA): (Syn) (Synergy (Syn) was defined as an FICI≤0.5)
MIC (S. aureus ATCC29213; ATCC29213, +8 mg/L DHA): 3.9 ng/mL (≈ 7.48 nM)
MIC (S. aureus ATCC29213; ATCC29213, agent alone): 250 ng/mL (≈ 479 nM)
combination effect (MRSA ATCC33591; MIC, +8 mg/L DHA): (Syn) (Synergy (Syn) was defined as an FICI≤0.5)
MIC (MRSA ATCC33591; +8 mg/L DHA): 0.061 ng/mL (≈ 0.117 nM)
MIC (MRSA ATCC33591; agent alone): 250 ng/mL (≈ 479 nM)
combination effect (MRSA ATCC43300; MIC, +8 mg/L DHA): (Syn) (Synergy (Syn) was defined as an FICI≤0.5)
MIC (MRSA ATCC43300; +8 mg/L DHA): 0.24 ng/mL (≈ 0.46 nM)
MIC (MRSA ATCC43300; agent alone): 250 ng/mL (≈ 479 nM)
